Several values for one entry are separate records, joined by “and”; a condition that tells them apart may be missing. Equal entries are not always repeated. Bridges are numbered along the chain shown (N, C = ends). Bounds are passed on as bounds.

Data on one substance can be found in patent US12629410B2, “Multi-antigenic peptide mimics of gonococcal lipo-oligosaccharide (LOS) epitopes” (priority 2019, dated 2026).

Holding throughout (format): cell-based
In one experiment the test system is N. gonorrhoeae FA1090. The experiment in a line: Serum bactericidal assay, immune mouse sera plus human complement. The note with it: for immune sera showing >50% killing: IgM-depleted sera at 1:30 (3.3%); for immune sera showing <50% survival (>50% killing): intact sera at 3.3% (1:30). Here is the method:
[…] Sera from mice diluted 1:1 in PBS was mixed with anti-mouse IgM agarose (Sigma; binding capacity ≥0.4 mg/ml) (1 volume of packed agarose to 1 volume of serum diluted 1:1) in a 2.0 ml microspin filter column (Costar) with a pore size of 0.22 μM) for 15 min at 22° C. Filter-sterilized IgM depleted sera were collected by centrifugation of the mixture at 1000 g for 2 min and heat-inactivated (56° C. for 30 min) to eliminate intrinsic complement activity in mouse serum prior to use in serum bactericidal assays where human complement was substituted.
(§1) Serum bactericidal assays were performed. Bacteria that had been harvested from an overnight culture on chocolate agar plates were repassaged onto fresh chocolate agar and allowed to grow for 6 h at 37° C. in an atmosphere containing 5% CO2. Bacteria were then suspended in HBSS containing 1 mM MgCl2 and 0.15 mM CaCl2) (HBSS++) for use in serum bactericidal assays. Briefly, about 2000 colony forming units (CFUs) of N. gonorrhoeae FA090 were incubated with serial dilutions of immune mouse sera (heat-inactivated and IgM-depleted) in the presence or absence of 20% normal human serum (NHS) as a source of human complement. Serum bactericidal assays with strain MS11 were performed with IgG and IgM depleted NHS (Human complement; Pel-Freez) because this strain is susceptible to killing by NHS. Final volumes of bactericidal reaction mixtures were 150 μl. Aliquots of 25-μl reaction mixtures were plated onto chocolate agar in duplicate at the beginning of the assay (to) and again after incubation at 37° C. for 30 min (t30). Survival was calculated as the number of viable colonies at t30 relative to t0.

In another experiment the test system is N. gonorrhoeae MS11. The description is as above. As to conditions: for killing of MS11, all 13 immune sera: 50 μg/dose schedule. As to the method:
Because earlier it was observed that sera from naïve and mice given adjuvant alone manifest bactericidal activity mediated by IgM, mouse IgM was depleted from all sera collected as part of immunization studies. Sera from mice diluted 1:1 in PBS was mixed with anti-mouse IgM agarose (Sigma; binding capacity ≥0.4 mg/ml) (1 volume of packed agarose to 1 volume of serum diluted 1:1) in a 2.0 ml microspin filter column (Costar) with a pore size of 0.22 μM) for 15 min at 22° C. Filter-sterilized IgM depleted sera were collected by centrifugation of the mixture at 1000 g for 2 min and heat-inactivated (56° C. for 30 min) to eliminate intrinsic complement activity in mouse serum prior to use in serum bactericidal assays where human complement was substituted.
as §1

Experiment [1] concerns N. gonorrhoeae strain 15253. Kind of experiment: Serum bactericidal activity of antisera raised against tetra-MAP candidates. The note with it: post-dose 5 IgM-depleted antiserum 1:3, 17% NHS; Sigma MPL adjuvant; compared with TMCP3, TMCP4. Here is the method: See Tables 1A-1K for a description of peptides. Post-dose 5 mouse anti-serum (IgM depleted) was tested against N. gonorrhoeae strain 15253 at a final dilution of 1:3 in the presence of 17% normal human serum (NHS) as the complement source. Y-axis, % killing ([CFU at t0−CFU at t30/CFU at t0]×100).
as §1

Turning to “[(CH2-CO-GPIPVLDENGLFAPGPC)-K-OH]4 ({CH2CO}-GPIPVLDENGLFAPGPCK-OH; thioether N-17; also: tetrameric MAP) [TMCP2]”, in the experiment on N. gonorrhoeae FA1090 (IgM-depleted post-dose 3 serum, 1:6 (16.7%), 50 μg/dose group), the “killing of FA1090, one serum sample” value came to 47%. The “immune sera showing >50% killing” value with N. gonorrhoeae FA1090 (100 μg/dose group) is “Three of five”; in the experiment with N. gonorrhoeae FA1090 (200 μg/dose group) it was “three of four”. The “Survival in intact immune serum” value was 0.00% and 6.19% in the experiment on N. gonorrhoeae FA1090 (Table 4, TMCP2 200 μg/dose + GLA-SE, immune serum 16.7% (1/6), 16.7% NHS); 0.00% and 1.52% and 0.47% and 0.93% in the experiment on N. gonorrhoeae MS11 (Table 6, TMCP2 50 μg/dose + GLA-SE, immune serum 6.7% (1/15), 6.7% IgG/IgM-depleted NHS (Pel-Freez)). Besides, in the experiment on N. gonorrhoeae FA1090 (final dilution 1:6 (16.7% immune serum), TMCP2 50, 100, 200 μg/dose + GLA-SE), the “killing of FA1090 by intact immune sera, all sera” value is more than 50%. The “immune sera showing <50% survival (>50% killing)” value in the experiment on N. gonorrhoeae FA1090 (50 μg/dose group) was “Four of 5”; in the experiment on N. gonorrhoeae FA1090 (100 μg/dose group), 3 of 5; in the experiment on N. gonorrhoeae FA1090 (200 μg/dose group), 3 of 4. In addition, the “killing of MS11, all 13 immune sera” value with N. gonorrhoeae MS11 (immune serum 3.3%) is listed as more than 60%; in the experiment on N. gonorrhoeae MS11 (immune serum 6.7%), more than 98%. In addition, the “complement-dependent killing of MS11, all sera in each group” value in the experiment on N. gonorrhoeae MS11 (13 sera per group after 3rd dose, 16.7% (1/6 dilution)) is on record as more than 50%. For the same substance, the “complement-dependent bactericidal activity of antisera” value in experiment [1] is listed as “maximal”.
